Source: patent publication US8093265B2, “Bicycloheteroaryl compounds as P2X7 modulators and uses thereof” (Renovis, Inc., priority 2007, dated 2012)

Target: T1, P2X7 receptor (Homo sapiens, UniProt Q99572)
T1 construct: host or cells: THP-1 cells differentiated with LPS and IFN-γ
T1 sequence (Q99572 1-595): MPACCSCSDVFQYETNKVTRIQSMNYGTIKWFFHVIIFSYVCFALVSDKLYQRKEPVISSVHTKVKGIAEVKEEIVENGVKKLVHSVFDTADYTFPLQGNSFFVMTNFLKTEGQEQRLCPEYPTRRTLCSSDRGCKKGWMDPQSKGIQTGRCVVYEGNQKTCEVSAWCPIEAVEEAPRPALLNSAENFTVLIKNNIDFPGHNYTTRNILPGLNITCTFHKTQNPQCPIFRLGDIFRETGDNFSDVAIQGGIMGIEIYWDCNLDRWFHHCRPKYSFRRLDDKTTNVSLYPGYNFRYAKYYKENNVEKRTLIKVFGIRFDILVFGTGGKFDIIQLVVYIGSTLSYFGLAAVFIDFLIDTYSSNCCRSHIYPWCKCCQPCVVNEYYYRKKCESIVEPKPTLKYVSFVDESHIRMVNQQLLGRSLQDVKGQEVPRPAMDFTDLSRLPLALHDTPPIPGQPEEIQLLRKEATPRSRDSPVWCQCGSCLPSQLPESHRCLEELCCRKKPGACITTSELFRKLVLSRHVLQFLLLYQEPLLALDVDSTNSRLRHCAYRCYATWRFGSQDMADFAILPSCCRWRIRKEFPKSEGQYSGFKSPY
Experiment: IL-1β release assay in differentiated THP-1 cells (Example 9)
Assay type: cell-based
Conditions: THP-1 cells differentiated with LPS and IFN-γ; 30 min pretreatment; BzATP 250 uM; IL-1β by ELISA
Description: THP-1 cells (ATCC Cat #285-IF-100) are plated in 96 well plates at a concentration of 200,000 cells per well and allowed to differentiate in RPMI-1640 media (ATCC Cat #30-2001) containing 10% FBS, 100 IU/mL penicillin, 100 ug/mL streptomycin, 100 ng/mL LPS and 100 ng/mL IFN-γ for 16 hours. Following differentiation, the cells are treated for an additional 2 hours in RPMI-1640 media containing 100 IU/mL penicillin, 100 ug/mL streptomycin and fresh LPS at 100 ng/mL. The cells are then pretreated for 30 minutes with the compound of interest at the appropriate concentration in RPMI media containing 100 IU/mL penicillin, 100 ug/mL streptomycin. Following the pretreatment 2′,3′-O-(4-benzoylbenzoyl)-adenosine 5′-triphosphate (Sigma Aldrich Cat # B6396) is added to a final concentration of 250 uM, and the cells are incubated for an additional 45 minutes. 30 uL of cell supernatant is then collected and IL-1β levels are determined via ELISA (R&D systems Cat. # HSLB50) according to manufacturer's recommendations using a Tecan Safire plate reader. Background adjusted IL-1β levels of drug treated and non-treated cells are used to calculate the percent inhibition.
The following compounds have been or can be prepared according to the synthetic methods described herein for example, methods A-AA1. The compounds set forth in Table 1 were tested for activity in a cellular model as described herein. Specifically, cells were pretreated with differing amounts of the compound under test and released IL-1β determined as in Example 9, above. Measurements were made and IC50 values, presented in Table 1, below, were determined by fitting the data to a four parameter logistic equation using GraphPad Prism software (GraphPad Software, Inc). The equation may be expressed by the following formula: Y=Bottom+(Top−Bottom)/(1+10^((Log EC50−X)*HillSlope)) where X is the logarithm of concentration, Y is the response and Y starts at Bottom and goes to Top with a sigmoid shape.

IC50 [nM]	Structure (SMILES)
0.2	C[C@H](CO)n1ccc2c(C(=O)NCC3CCCCCC3)c(Cl)ccc2c1=O [Compound 48, 6-Chloro-2-((R)-2-hydroxy-1-methyl-ethyl)-1-oxo-1,2-dihydro-isoquinoline-5-carboxylic acid cycloheptylmethyl-amide]
5	Cc1ccc2c(=O)n([C@H](C)CN3CC[C@H](N)C3)ccc2c1NC(=O)Cc1ccc(C(F)(F)F)c(F)c1 [Compound 66]
1	Cc1ccc2c(=O)n([C@H](C)CN3CCNCC3)ccc2c1NC(=O)Cc1ccc(C(F)(F)F)c(F)c1 [Compound 60, 2-(3-Fluoro-4-trifluoromethyl-phenyl)-N-[6-methyl-2-((R)-1-methyl-2-piperazin-1-yl-ethyl)-1-oxo-1,2-dihydro-isoquinolin-5-yl]-acetamide]
532	C[C@H](CO)n1ccc2c(C(=O)NCC3(O)CC4CCC3C4)c(Cl)ccc2c1=O (stereo partly drawn) [Compound 53, 6-Chloro-2-((R)-2-hydroxy-1-methyl-ethyl)-1-oxo-1,2-dihydro-isoquinoline-5-carboxylic acid (2-hydroxy-bicyclo[2.2.1]hept-2-ylmethyl)-amide]
4	Cc1ccc2c(=O)n([C@H](C)CO)ccc2c1C(=O)NCC1(O)CCCCCC1 [Compound 52, 2-((R)-2-Hydroxy-1-methyl-ethyl)-6-methyl-1-oxo-1,2-dihydro-isoquinoline-5-carboxylic acid (1-hydroxy-cycloheptylmethyl)-amide]
500	C[C@H](CO)n1ccc2c(C(=O)NCc3ccccc3C(F)(F)F)c(Cl)ccc2c1=O [Compound 46, 6-Chloro-2-((R)-2-hydroxy-1-methyl-ethyl)-1-oxo-1,2-dihydro-isoquinoline-5-carboxylic acid 2-trifluoromethyl-benzylamide]
6	C[C@H](CO)n1ccc2c(C(=O)NCC3(O)CCC(F)CC3)c(Cl)ccc2c1=O (some centres unmarked) [Compound 69]
5	C[C@H](CO)n1ccc2c(C(=O)NCC3(O)CCCCC3)c(Cl)ccc2c1=O [Compound 57, 6-Chloro-2-((R)-2-hydroxy-1-methyl-ethyl)-1-oxo-1,2-dihydro-isoquinoline-5-carboxylic acid (1-hydroxy-cyclohexylmethyl)-amide]
2	CNC[C@@H](C)n1ccc2c(NC(=O)Cc3ccc(C(F)(F)F)c(F)c3)c(C)ccc2c1=O [Compound 59, 2-(3-Fluoro-4-trifluoromethyl-phenyl)-N-[6-methyl-2-((R)-1-methyl-2-methylamino-ethyl)-1-oxo-1,2-dihydro-isoquinolin-5-yl]-acetamide]
30	Cc1ccc2c(=O)n(C(CO)CO)ccc2c1NC(=O)Cc1ccc(C(F)(F)F)c(F)c1 [Compound 62, 2-(3-Fluoro-4-trifluoromethyl-phenyl)-N-[2-(2-hydroxy-1-hydroxymethyl-ethyl)-6-methyl-1-oxo-1,2-dihydro-isoquinolin-5-yl]-acetamide]
0.01	Cc1ccc2c(=O)n([C@H](C)CN)ccc2c1NC(=O)Cc1ccc(C(F)(F)F)c(F)c1 [Compound 58, N-[2-((R)-2-Amino-1-methyl-ethyl)-6-methyl-1-oxo-1,2-dihydro-isoquinolin-5-yl]-2-(3-fluoro-4-trifluoromethyl-phenyl)-acetamide]

The next lines start with the molecule.

Structure (SMILES)	IC50 [nM]
Cc1ccc2c(=O)n([C@@H](C)CO)ccc2c1NC(=O)Cc1ccc(C(F)(F)F)c(F)c1 [Compound 33, (S)-2-(3-fluoro-4-(trifluoromethyl)phenyl)-N-(2-(1-hydroxypropan-2-yl)-6-methyl-1-oxo-1,2-dihydroisoquinolin-5-yl)acetamide]	53
C[C@H](CO)n1ccc2c(NC(=O)Cc3ccc(C(F)(F)F)cc3F)c(Cl)ccc2c1=O [Compound 14, N-[6-Chloro-2-((R)-2-hydroxy-1-methyl-ethyl)-1-oxo-1,2-dihydro-isoquinolin-5-yl]-2-(2-fluoro-4-trifluoromethyl-phenyl)-acetamide]	31
C[C@H](C(=O)Nc1c(Cl)ccc2c(=O)n([C@H](C)C(N)=O)ccc12)c1ccc(Cl)cc1 [Compound 4, (R)-2-{6-Chloro-5-[(S)-2-(4-chloro-phenyl)-propionylamino]-1-oxo-1H-isoquinolin-2-yl}-propionamide]	18
O=C(Cc1cccc(C(F)(F)F)c1F)Nc1c(NCCO)ccc2c(=O)n(CCO)ccc12 [Compound 18, 2-(2-Fluoro-3-trifluoromethyl-phenyl)-N-[2-(2-hydroxy-ethyl)-6-(2-hydroxy-ethylamino)-1-oxo-1,2-dihydro-isoquinolin-5-yl]-acetamide]	1670
C[C@@H](C(N)=O)n1ccc2c(NC(=O)Cc3ccc(C(F)(F)F)cc3)c(Cl)ccc2c1=O [Compound 8, (S)-2-{6-Chloro-1-oxo-5-[2-(4-trifluoromethyl-phenyl)-acetylamino]-1H-isoquinolin-2-yl}-propionamide]	113
C[C@H](CO)n1ccc2c(NC(=O)Cc3ccc(Cl)c(Cl)c3)c(Cl)ccc2c1=O [Compound 12, N-[6-Chloro-2-((R)-2-hydroxy-1-methyl-ethyl)-1-oxo-1,2-dihydro-isoquinolin-5-yl]-2-(3,4-dichloro-phenyl)-acetamide]	13
Cc1ccc2c(=O)n([C@H](C)CO)ccc2c1NC(=O)Cc1cccc(C(F)(F)F)c1 [Compound 35, N-[2-((R)-2-Hydroxy-1-methyl-ethyl)-6-methyl-1-oxo-1,2-dihydro-isoquinolin-5-yl]-2-(3-trifluoromethyl-phenyl)-acetamide]	2
C[C@H](CO)n1ccc2c(NC(=O)Cc3cccc(C(F)(F)F)c3)c(Cl)ccc2c1=O [Compound 39, N-[6-Chloro-2-((R)-2-hydroxy-1-methyl-ethyl)-1-oxo-1,2-dihydro-isoquinolin-5-yl]-2-(3-trifluoromethyl-phenyl)-acetamide]	1
C[C@H](CO)n1ccc2c(C(=O)NCc3ccc(C(F)(F)F)nc3)c(Cl)ccc2c1=O [Compound 43, 6-Chloro-2-((R)-2-hydroxy-1-methyl-ethyl)-1-oxo-1,2-dihydro-isoquinoline-5-carboxylic acid (6-trifluoromethyl-pyridin-3-ylmethyl)-amide]	310
COc1ccc2c(=O)n([C@H](C)C(N)=O)ccc2c1NC(=O)Cc1ccc(C(F)(F)F)cc1 [Compound 7, (R)-2-{6-Methoxy-1-oxo-5-[2-(4-trifluoromethyl-phenyl)-acetylamino]-1H-isoquinolin-2-yl}-propionamide]	48
Cc1ccc2c(=O)n(CCO)ccc2c1NC(=O)Cc1cccc(C(F)(F)F)c1F [Compound 24, 2-(2-Fluoro-3-trifluoromethyl-phenyl)-N-[2-(2-hydroxy-ethyl)-6-methyl-1-oxo-1,2-dihydro-isoquinolin-5-yl]-acetamide]	65
CNCCn1ccc2c(NC(=O)Cc3ccc(C(F)(F)F)c(F)c3)c(C)ccc2c1=O [Compound 38, 2-(3-Fluoro-4-trifluoromethyl-phenyl)-1-[6-methyl-2-(2-methylamino-ethyl)-1-oxo-1,2-dihydroisoquinolin-5-yl]-acetamide]	43
C[C@@H](CO)n1ccc2c(NC(=O)Cc3ccc(C(F)(F)F)c(F)c3)c(Cl)ccc2c1=O [Compound 34, N-[6-Chloro-2-((S)-2-hydroxy-1-methyl-ethyl)-1-oxo-1,2-dihydro-isoquinolin-5-yl]-2-(3-fluoro-4-trifluoromethyl-phenyl)-acetamide]	23
COc1ccc2c(=O)n([C@H](C)CO)ccc2c1NC(=O)Cc1ccc(C(F)(F)F)c(F)c1 [Compound 9, 2-(3-Fluoro-4-trifluoromethyl-phenyl)-N-[2-((R)-2-hydroxy-1-methyl-ethyl)-6-methoxy-1-oxo-1,2-dihydro-isoquinolin-5-yl]-acetamide]	439
Cc1ccc2c(=O)n([C@H](C)CO)ccc2c1NC(=O)CC1CCCCCC1 [Compound 32, 2-Cycloheptyl-N-[2-((R)-2-hydroxy-1-methyl-ethyl)-6-methyl-1-oxo-1,2-dihydro-isoquinolin-5-yl]-acetamide]	9
